These results are taken from patent US20030195152A1, “Polymeric conjugates of antitumor agents” (priority 2000, published 2003).

In the data set the test system is human colon carcinoma (HT29). As to the kind of experiment: Antitumor activity on human colon carcinoma (HT29) transplanted in nude mice. It is filed as in vivo. To be noted: for TI % (tumor inhibition %): calculated at day 46, HT29 sc in nude mice. As for the experimental part: Campound (A1a) was tested on human colon carcinoma (HT29) transplanted in nude mice, in comparison with the free drug 7-ethyl-10-hydroxycamptothecin (12) by i.v. route. A1a was found non toxic at all tested doses and gave 98% tumor inhibition at the highest tested dose of 20 mg/kg (Table 1).

Setting [1] is: dose 10 mg/kg i.v. q4dx6, total dose 60 mg/kg.
Where [2] appears, read: dose 20 mg/kg i.v. q4dx6, total dose 120 mg/kg.
[3] abbreviates: dose 30 mg/kg i.v. q4dx6, total dose 180 mg/kg.
Where [4] appears, read: dose 40 mg/kg i.v. q4dx6, total dose 240 mg/kg.

For the compound `CCc1c2c(nc3ccc(O)cc13)-c1cc3c(c(=O)n1C2)COC(=O)[C@]3(O)CC` [Compound 12, 7-ethyl-10-hydroxycamptothecin, reference compound], the “Tox (number of mice died for toxicity/total number mice)” value runs as follows: under setting [1], 0/7; under setting [2], 3/7. Besides, the “TI % (tumor inhibition %)” value under setting [1] is given as 67% and the “TI % (tumor inhibition %)” value under setting [2] is given as 97%.

Consider “Copolymer of N-(2-hydroxypropyl)methacryloylamide, 7-ethyl-10-hydroxy-20-O-[N-methacryloyl-6-aminohexanoyl-(methionyl-sulfoxide)-glycyl-(S-benzyl-cysteinyl)-leucyl-glycyl]camptothecin and N-(2-hydroxypropyl)methacryloylglycinamide [Compound A1a]”, for which the toxicity result (all tested doses, i.v., nude mice bearing HT29) is recorded as “non toxic”. Also, the “Tox (number of mice died for toxicity/total number mice)” value is, setting by setting: under setting [1], 0/7; under setting [2], 0/7; under setting [3], 0/7; under setting [4], 0/7. Moreover, the “TI % (tumor inhibition %)” value under setting [1] is 85%; the “TI % (tumor inhibition %)” value under setting [2] is reported as 98%; the “TI % (tumor inhibition %)” value (dose 20 mg/kg i.v. q4dx6, total dose 120 mg/kg, listed as Ala) is 97%; the “TI % (tumor inhibition %)” value under setting [3] was 97%; the “TI % (tumor inhibition %)” value under setting [4] was 97%.
